PMC10026764, “Overcoming the imatinib-resistant BCR-ABL mutants with new ureidobenzothiazole chemotypes endowed with potent and broad-spectrum anticancer activity” (Journal of Enzyme Inhibition and Medicinal Chemistry, 2023)
Several values for one entry are separate records, joined by “and”; a condition that tells them apart may be missing. Identical values can stand only once. Like-named read-outs stand apart in the source and are kept apart here.

What was measured:
DU-145 = experiment: NCI-60 five-dose SRB assay; type: cell-based, human; settings: DU-145, prostate cancer; for GI50 / CC50: Homo sapiens; for CC50: read-out: LC50 (the source's name)
OVCAR-3 [1] = experiment: NCI-60 five-dose SRB assay; type: cell-based, human; settings: OVCAR-3, ovarian cancer; for GI50 / LC50 (concentration killing 50% of cells): Homo sapiens
OVCAR-4 = experiment: NCI-60 five-dose SRB assay; type: cell-based; settings: Homo sapiens; OVCAR-4, ovarian cancer
SF-539 = experiment: NCI-60 five-dose SRB assay; type: cell-based; settings: Homo sapiens; SF-539, CNS cancer
CCRF-CEM [2] = experiment: NCI-60 five-dose SRB assay; type: cell-based; settings: Homo sapiens, leukaemia
HOP-92 = experiment: NCI-60 five-dose SRB assay; type: cell-based; settings: Homo sapiens; HOP-92, non-small cell lung cancer
T-47D = experiment: NCI-60 five-dose SRB assay; type: cell-based; settings: Homo sapiens, T47D, breast cancer
A549/ATCC [3] = experiment: NCI-60 five-dose SRB assay; type: cell-based; settings: Homo sapiens, non-small cell lung cancer
OVCAR-8 = experiment: NCI-60 five-dose SRB assay; type: cell-based; settings: Homo sapiens; OVCAR-8, ovarian cancer
NCI-H226 = experiment: NCI-60 five-dose SRB assay; type: cell-based; settings: Homo sapiens; NCI-H226, non-small cell lung cancer
SF-295 = experiment: NCI-60 five-dose SRB assay; type: cell-based; settings: Homo sapiens; SF-295, CNS cancer
NCI-H23 [4] = experiment: NCI-60 five-dose SRB assay; type: cell-based; settings: Homo sapiens; NCI-H23, non-small cell lung cancer
UACC-257 [5] = experiment: NCI-60 five-dose SRB assay; type: cell-based; settings: Homo sapiens; UACC-257, melanoma
HCC-2998 = experiment: NCI-60 five-dose SRB assay; type: cell-based; settings: Homo sapiens; HCC-2998, colon cancer
SN12C = experiment: NCI-60 five-dose SRB assay; type: cell-based; settings: Homo sapiens, renal cancer
MOLT-4 = experiment: NCI-60 five-dose SRB assay; type: cell-based, human; settings: MOLT-4, leukaemia; for GI50 / CC50: Homo sapiens; for CC50: read-out: LC50 (the source's name)
SNB-75 = experiment: NCI-60 five-dose SRB assay; type: cell-based, human; settings: SNB-75, CNS cancer; for GI50 / CC50: Homo sapiens; for CC50: read-out: LC50 (the source's name)
TK-10 = experiment: NCI-60 five-dose SRB assay; type: cell-based; settings: Homo sapiens; TK-10, renal cancer
ABL^M351T = ABL^M351T (Homo sapiens, UniProt P00519, M351T); experiment: In vitro enzymatic activity, imatinib-resistant mutant panel; type: biochemical
HCT-116 = experiment: NCI-60 five-dose SRB assay; type: cell-based; settings: Homo sapiens; HCT-116, colon cancer
SK-MEL-2 = experiment: NCI-60 five-dose SRB assay; type: cell-based; settings: Homo sapiens; SK-MEL-2, melanoma
SW-620 = experiment: NCI-60 five-dose SRB assay; type: cell-based; settings: Homo sapiens; SW-620, colon cancer
SK-MEL-28 = experiment: NCI-60 five-dose SRB assay; type: cell-based; settings: Homo sapiens; SK-MEL-28, melanoma
U251 = experiment: cells; type: cell-based; settings: U251, CNS cancer; for GI50 / CC50: Homo sapiens, U-251; for CC50: read-out: LC50 (the source's name)
BCR-ABL^T315I = target: T1, BCR-ABL^T315I (Homo sapiens, UniProt P00519, T315I); experiment: In vitro kinase screening (RBC), BCR-ABL^T315I; type: biochemical; settings: 10-dose IC50 mode, 3-fold serial dilution, 10 μM ATP
T1 construct: purchased Reaction Biology Corporation (RBC, Malvern, PA, USA)

PC-3 [6] = experiment: NCI-60 five-dose SRB assay; type: cell-based; settings: Homo sapiens; PC-3, prostate cancer
NCI-H522 = experiment: NCI-60 five-dose SRB assay; type: cell-based, human
RXF 393 = experiment: NCI-60 five-dose SRB assay; type: cell-based; settings: Homo sapiens; RXF 393, renal cancer
ACHN = experiment: NCI-60 five-dose SRB assay; type: cell-based, human; settings: renal cancer; for GI50 / CC50: Homo sapiens; for CC50: read-out: LC50 (the source's name)
KM12 = experiment: NCI-60 five-dose SRB assay; type: cell-based; settings: Homo sapiens; KM12, colon cancer
OVCAR-3 [7] = tested on: OVCAR-3; parameters: method as in earlier work; settings: imatinib mesylate NSC 743414, NCI data; cited from earlier work
NCI-H460 = tested on: NCI-H460; parameters: method as in earlier work; settings: imatinib mesylate NSC 743414, NCI data; cited from earlier work
PC-3 [8] = tested on: PC-3; parameters: method as in earlier work; settings: imatinib mesylate NSC 743414, NCI data; cited from earlier work
MDA-MB-435 = tested on: MDA-MB-435; parameters: method as in earlier work; settings: imatinib mesylate NSC 743414, NCI data; cited from earlier work
UO-31 = tested on: UO-31; parameters: method as in earlier work; settings: imatinib mesylate NSC 743414, NCI data; cited from earlier work
SNB-19 = tested on: SNB-19; parameters: method as in earlier work; settings: imatinib mesylate NSC 743414, NCI data; cited from earlier work
CCRF-CEM [9] = tested on: CCRF-CEM; parameters: method as in earlier work; settings: imatinib mesylate NSC 743414, NCI data; cited from earlier work
MCF7 = tested on: MCF7; parameters: method as in earlier work; settings: imatinib mesylate NSC 743414, NCI data; cited from earlier work
A549/ATCC [10] = tested on: A549/ATCC; parameters: method as in earlier work; settings: imatinib mesylate NSC 743414, NCI data; cited from earlier work
NCI-H23 [11] = tested on: NCI-H23; parameters: method as in earlier work; settings: imatinib mesylate NSC 743414, NCI data; cited from earlier work
UACC-257 [12] = tested on: UACC-257; parameters: method as in earlier work; settings: imatinib mesylate NSC 743414, NCI data; cited from earlier work
[13] = Homo sapiens, NCI-H522, NCI-H522, non-small cell lung cancer

SMILES: CCN1CCN(c2ccc(NC(=O)Nc3nc4ccc(-c5ccccc5OC)cc4s3)cc2)CC1 [Compound 2b]
- TGI (DU-145): 3.26 µM
- GI50 (DU-145): 1740 nM
- CC50 (DU-145): 6.08 µM
- GI50 (OVCAR-3 [1]): 1640 nM
- LC50 (concentration killing 50% of cells) (OVCAR-3 [1]): 5.9 µM
- TGI (OVCAR-3 [1]): 3.11 µM
- GI50 (OVCAR-4): 1680 nM
- GI50 (SF-539): 1600 nM
- GI50 (CCRF-CEM [2]): 1810 nM
- GI50 (HOP-92): 1470 nM
- GI50 (T-47D): 1580 nM
- GI50 (A549/ATCC [3]): 1980 nM
- GI50 (OVCAR-8): 1990 nM
- GI50 (NCI-H226): 2090 nM
- GI50 (SF-295): 1680 nM
- GI50 (NCI-H23 [4]): 1670 nM
- GI50 (UACC-257 [5]): 2110 nM
- GI50 (HCC-2998): 1830 nM
- GI50 (SN12C): 1770 nM
- GI50 (MOLT-4): 1800 nM
- CC50 (MOLT-4): 7.45 µM
- TGI (MOLT-4): 3.67 µM
- GI50 (SNB-75): 1490 nM
- CC50 (SNB-75): 5.46 µM
- TGI (SNB-75): 2.86 µM
- GI50 (TK-10): 2.12 µM
- IC50 (ABL^M351T): 1.06 nM
- GI50 (HCT-116): 1580 nM
- GI50 (SK-MEL-2): 1940 nM
- GI50 (SW-620): 1940 nM
- GI50 (SK-MEL-28): 1760 nM
- GI50 (U251): 1570 nM
- CC50 (U251): 5.51 µM
- TGI (U251): 2.94 µM
- IC50 (BCR-ABL^T315I): 0.65 nM and 0.651 nM
- GI50 (PC-3 [6]): 1790 nM
- GI50 (NCI-H522; [13]): ~1760 nM
- GI50 (NCI-H522; NCI-H522, non-small cell lung cancer): 1750 nM
- GI50 (RXF 393): 1700 nM
- GI50 (ACHN): 1740 nM
- CC50 (ACHN): 5.58 µM
- TGI (ACHN): 3.11 µM
- GI50 (KM12): 1750 nM

SMILES: COc1ccccc1-c1ccc2nc(NC(=O)Nc3cc(C(F)(F)F)cc(C(F)(F)F)c3)sc2c1 [Compound 2e]
- TGI (DU-145): 14.9 µM
- GI50 (DU-145): 4000 nM
- CC50 (DU-145): 42.4 µM
- GI50 (OVCAR-3 [1]): 1580 nM
- LC50 (concentration killing 50% of cells) (OVCAR-3 [1]): 16.7 µM
- TGI (OVCAR-3 [1]): 4.58 µM
- GI50 (OVCAR-4): 2120 nM
- GI50 (SF-539): 1990 nM
- GI50 (CCRF-CEM [2]): 2430 nM
- GI50 (HOP-92): 1190 nM
- GI50 (T-47D): 2160 nM
- GI50 (A549/ATCC [3]): 3190 nM
- GI50 (OVCAR-8): 3040 nM
- GI50 (NCI-H226): 2160 nM
- GI50 (SF-295): 2640 nM
- GI50 (NCI-H23 [4]): 2020 nM
- GI50 (UACC-257 [5]): 2310 nM
- GI50 (HCC-2998): 2650 nM
- GI50 (SN12C): 1700 nM
- GI50 (MOLT-4): 1590 nM
- CC50 (MOLT-4): 51.3 µM
- TGI (MOLT-4): 7.24 µM
- GI50 (SNB-75): 2250 nM
- CC50 (SNB-75): 45.3 µM
- TGI (SNB-75): 11.8 µM
- GI50 (TK-10): 4.03 µM
- GI50 (HCT-116): 1070 nM
- GI50 (SK-MEL-2): 2090 nM
- GI50 (SW-620): 3040 nM
- GI50 (SK-MEL-28): 2510 nM
- GI50 (U251): 2310 nM
- CC50 (U251): 34.4 µM
- TGI (U251): 10.3 µM
- IC50 (BCR-ABL^T315I): 9560 nM
- GI50 (PC-3 [6]): 1490 nM
- GI50 (NCI-H522; [13]): 1760 nM
- GI50 (RXF 393): 2190 nM
- GI50 (ACHN): 2140 nM
- CC50 (ACHN): 28.2 µM
- TGI (ACHN): 7.71 µM
- GI50 (KM12): 2070 nM

SMILES: Cc1ccc(NC(=O)c2ccc(CN3CCN(C)CC3)cc2)cc1Nc1nccc(-c2cccnc2)n1 [Imatinib]
- GI50 (OVCAR-3 [7]): 34.2 µM
- GI50 (NCI-H460): 16.2 µM
- GI50 (PC-3 [8]): 21.4 µM
- GI50 (MDA-MB-435): 17.9 µM
- GI50 (UO-31): 22.3 µM
- GI50 (SNB-19): 38.6 µM
- GI50 (CCRF-CEM [9]): 17 µM
- GI50 (MCF7): 18.2 µM
- GI50 (A549/ATCC [10]): 24.5 µM
- GI50 (NCI-H23 [11]): 15 µM
- GI50 (UACC-257 [12]): 21.1 µM
